Test systems include A498; A549; ACHN; COLO 205; HOP-92; K562; KM12; M14; MDA-MB-231; Malme-3M; OVCAR-3; RPMI-8226; SK-MEL-28; SN12C; SNB-75; T47D; TK-10; UO-31; LOX IMVI.
Common to all, as to experiment: NCI-60 cell line screen, 48 h

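Five concentrations, 48 hours, 96-well plates. GI50 marks 50% less growth.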 Active and inactive are the calls of the source. Cut-off read from the data, not from the text of the source: active = GI50 up to about 1.1 µM and inactive = higher.

Experimental findings from ChEMBL document CHEMBL1201862, “PubChem BioAssay data set” (2004) are described below.

Take `CCOP(=O)(OCC)C(F)(F)Cc1cnc(C)c2c1COC(C)(C)O2`: the GI50 in the experiment with A498, in the experiment with A549, in the experiment with ACHN, with COLO 205, in the experiment with HOP-92 and in the experiment with K562 was > 10 µM (inactive) throughout. Besides, the GI50 in the experiment with KM12, with M14, in the experiment on MDA-MB-231, in the experiment with Malme-3M, in the experiment with OVCAR-3 and with RPMI-8226 was > 10 µM (inactive) throughout. Further, the GI50 in the experiment with SK-MEL-28, in the experiment with SN12C, in the experiment with SNB-75, in the experiment on T47D, with TK-10 and with UO-31 was > 10 µM (inactive) in each case.

As to `Nc1nc(N)c2cc(CNc3ccc(C(=O)NC(CC(=O)O)C(=O)O)c(Cl)c3)ccc2n1` (stereo not given), the GI50 is 0.171 µM (active) in the experiment with A498; 0.0346 µM (active) in the experiment on A549; 0.0253 µM (active) in the experiment with ACHN; 0.861 µM (active) with COLO 205; > 87.5 µM (inactive) in the experiment with HOP-92; < 0.0192 µM (active) in the experiment on K562. The GI50 was 0.0796 µM (active) in the experiment on KM12; < 0.01 µM (active) with LOX IMVI; 0.0743 µM (active) in the experiment with M14; 337 µM (inactive) in the experiment on MDA-MB-231; 0.383 µM (active) in the experiment with Malme-3M; 0.8 µM (active) in the experiment with OVCAR-3. Further, the GI50 in the experiment on SK-MEL-28 was 0.288 µM (active); with SN12C, 0.278 µM (active); with SNB-75, > 20.8 µM (inactive); in the experiment on T47D, 0.524 µM (active); in the experiment with TK-10, 0.0803 µM (active); in the experiment with UO-31, 0.918 µM (active).

Turning to `c1ccc2c(c1)nc1n2CNC1`, the GI50 in the experiment on A498, in the experiment on A549, in the experiment on ACHN, with COLO 205, in the experiment on HOP-92 and with K562 was > 100 µM (inactive) throughout. For the same compound, the GI50 with KM12, with LOX IMVI, in the experiment with M14, with MDA-MB-231, with OVCAR-3 and in the experiment on RPMI-8226 was > 100 µM (inactive) in each case. Also, the GI50 in the experiment with SK-MEL-28, in the experiment with SN12C, in the experiment on SNB-75, with T47D, in the experiment on TK-10 and in the experiment with UO-31 was > 100 µM (inactive) throughout.

As to `Nc1ncnc2c1cnn2COCC(O)CO` (stereo not given), the GI50 in the experiment on A498, in the experiment on A549, in the experiment with ACHN, with COLO 205, in the experiment with HOP-92 and in the experiment with K562 was > 100 µM (inactive) throughout. Besides, the GI50 in the experiment on KM12, in the experiment on LOX IMVI, in the experiment on M14, in the experiment on MDA-MB-231, in the experiment with Malme-3M and in the experiment with OVCAR-3 was > 100 µM (inactive) throughout. For the same compound, the GI50 in the experiment with RPMI-8226, in the experiment with SK-MEL-28, with SN12C, in the experiment with T47D, in the experiment on TK-10 and in the experiment on UO-31 was > 100 µM (inactive) in each case.

`O=c1c(-c2ccccc2)nnc2n(Cc3ccccc3)c3ccccc3n12`: the GI50 in the experiment with A498 was > 100 µM (inactive); in the experiment on A549, > 100 µM (inactive); in the experiment on ACHN, > 100 µM (inactive); with COLO 205 it was > 100 µM (inactive); with HOP-92, 28.6 µM (inactive); in the experiment on KM12, > 100 µM (inactive). For the same compound, the GI50 in the experiment on LOX IMVI, in the experiment with M14, in the experiment on MDA-MB-231, with Malme-3M, in the experiment on SK-MEL-28 and in the experiment with SN12C was > 100 µM (inactive) in each case. The GI50 with SNB-75, in the experiment on T47D, with TK-10 and in the experiment with UO-31 was > 100 µM (inactive) each time.

`OCCOCCN1CCN(CCCN2c3ccccc3Sc3ccc(C(F)(F)F)cc32)CC1`: the GI50 with A498 was 10.5 µM (inactive); in the experiment with A549 it was 13.1 µM (inactive); in the experiment on ACHN, 17.7 µM (inactive); in the experiment with COLO 205, 1.75 µM (inactive); with HOP-92 it was 14.1 µM (inactive); with K562, 2.79 µM (inactive). Further, the GI50 was 6.7 µM (inactive) in the experiment on KM12; 3.97 µM (inactive) in the experiment with LOX IMVI; 2.65 µM (inactive) in the experiment on M14; 11.1 µM (inactive) in the experiment on MDA-MB-231; 17.7 µM (inactive) with OVCAR-3; 3.17 µM (inactive) in the experiment on RPMI-8226. Besides, the GI50 with SK-MEL-28 was 3.27 µM (inactive); in the experiment with SN12C, 13.6 µM (inactive); with SNB-75, 2.39 µM (inactive); with T47D it was 0.955 µM (active); in the experiment with TK-10, 11.7 µM (inactive); with UO-31, 5.74 µM (inactive).

Regarding `CC(C)SC(=S)Sc1c(Cl)c(Cl)nc(Cl)c1Cl`, the GI50 with A498 is 17.1 µM (inactive); with A549, 16.9 µM (inactive); in the experiment on ACHN, 6.98 µM (inactive); with COLO 205, 8.55 µM (inactive); in the experiment with HOP-92, 7.69 µM (inactive); with K562, 2.97 µM (inactive). Further, the GI50 is 8.24 µM (inactive) in the experiment with KM12; 2.39 µM (inactive) in the experiment with LOX IMVI; 12.4 µM (inactive) in the experiment with M14; 12.7 µM (inactive) in the experiment on MDA-MB-231; 15.7 µM (inactive) in the experiment with Malme-3M; 1.85 µM (inactive) with OVCAR-3. Further, the GI50 with RPMI-8226 is 1.75 µM (inactive); with SK-MEL-28, 18.7 µM (inactive); in the experiment on SN12C, 13 µM (inactive); in the experiment with T47D it was 1.96 µM (inactive); with TK-10, 5.97 µM (inactive); in the experiment on UO-31, 8 µM (inactive).

As for `NS(=O)(=O)c1ccc(C(=O)O)cc1` [CARZENIDE], the GI50 in the experiment with A498 is > 100 µM (inactive); with A549, > 100 µM (inactive); in the experiment with ACHN it was > 100 µM (inactive); with COLO 205, > 100 µM (inactive); with HOP-92, 97.5 µM (inactive); in the experiment on K562, > 100 µM (inactive). In addition, the GI50 in the experiment with KM12, in the experiment on LOX IMVI, in the experiment with M14, with MDA-MB-231, in the experiment on Malme-3M and in the experiment on OVCAR-3 was > 100 µM (inactive) throughout. Besides, the GI50 in the experiment with RPMI-8226, with SK-MEL-28, in the experiment on SN12C, in the experiment with T47D, in the experiment with TK-10 and with UO-31 was > 100 µM (inactive) in each case.

Consider `O=P1(N(CCCl)CCCl)Oc2ccc(Cl)cc2Sc2c(ccc(Cl)c2Cl)O1` (stereo not given), for which the GI50 is 22.2 µM (inactive) in the experiment on A498; 3.78 µM (inactive) in the experiment on A549; 7.41 µM (inactive) in the experiment on ACHN; 8.18 µM (inactive) with COLO 205; 4.42 µM (inactive) in the experiment on HOP-92; 3.47 µM (inactive) in the experiment on K562. In addition, the GI50 in the experiment on KM12 was 4.99 µM (inactive); with LOX IMVI, 14.6 µM (inactive); in the experiment with M14, 17.8 µM (inactive); in the experiment on MDA-MB-231 it was 12.3 µM (inactive); in the experiment with OVCAR-3, 4.95 µM (inactive); with RPMI-8226, 5.02 µM (inactive). The GI50 in the experiment on SK-MEL-28 was 11.5 µM (inactive); with SN12C it was 11.9 µM (inactive); with SNB-75 it was 18.8 µM (inactive); in the experiment on T47D, 8.38 µM (inactive); with TK-10 it was 9.18 µM (inactive); in the experiment with UO-31 it was 4.71 µM (inactive).

For the compound `CC12CC3CC/C(=N\O)C(C1)C3(N1CCOCC1)C/C2=N/O` (stereo not given), the GI50 in the experiment with A498, in the experiment on A549, in the experiment on ACHN, in the experiment on COLO 205, in the experiment with HOP-92 and in the experiment with K562 was > 100 µM (inactive) throughout. In addition, the GI50 with KM12, in the experiment with LOX IMVI, in the experiment with M14, with MDA-MB-231, in the experiment on Malme-3M and in the experiment with OVCAR-3 was > 100 µM (inactive) throughout. Moreover, the GI50 was > 100 µM (inactive) with SK-MEL-28; > 100 µM (inactive) in the experiment on SN12C; 25.1 µM (inactive) in the experiment on SNB-75; > 100 µM (inactive) in the experiment on T47D; > 100 µM (inactive) with UO-31.

For the compound `CC(C)(C)OC(=O)[C@@H]1CCC(=O)N1C1(c2ccccc2)c2ccccc2-c2ccccc21`, the GI50 in the experiment on A498 is 64.7 µM (inactive); in the experiment with A549, 35.2 µM (inactive); in the experiment on ACHN, 26.9 µM (inactive); with COLO 205 it was 21.4 µM (inactive); with HOP-92 it was 26.3 µM (inactive); in the experiment with K562, 41 µM (inactive). Besides, the GI50 with KM12 is 43.3 µM (inactive); in the experiment with LOX IMVI, 17.9 µM (inactive); in the experiment on M14 it was 50.4 µM (inactive); with MDA-MB-231, 16.4 µM (inactive); in the experiment with Malme-3M, 33.3 µM (inactive); in the experiment with OVCAR-3, 27.4 µM (inactive). In addition, the GI50 in the experiment on SK-MEL-28 was 28.6 µM (inactive); in the experiment with SN12C, 39.3 µM (inactive); in the experiment with SNB-75, 25.9 µM (inactive); in the experiment on T47D, 44.9 µM (inactive); in the experiment with TK-10 it was > 100 µM (inactive); with UO-31 it was 67.3 µM (inactive).
